From PubChem BioAssay (NCI)
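Protocol summary: plate cells (96-well), add compound at 5 concentrations, incubate 48 h, interpolate endpoints linearly. TGI: concentration producing complete growth inhibition.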

Columns and labels:
Experiment in all cases: inhibition of tumour cell growth, NCI panel, 48 h
UACC-62 melanoma = tested on: UACC-62 melanoma
SN12C renal = tested on: SN12C renal
SK-OV-3 ovarian = tested on: SK-OV-3 ovarian
HOP-62 NSCLC = tested on: HOP-62 NSCLC
MALME-3M melanoma = tested on: MALME-3M melanoma
NCI-H522 lung = tested on: NCI-H522 lung
SF-295 CNS = tested on: SF-295 CNS
RPMI-8226 leukemia = tested on: RPMI-8226 leukemia
SF-268 CNS = tested on: SF-268 CNS
MDA-N = tested on: MDA-N
786-0 renal = tested on: 786-0 renal

## N#C/C(=C1/Sc2c(nc[nH]c2=O)N1c1ccccc1)c1nc2ccccc2[nH]1
UACC-62 melanoma
  TGI: > 100 µM
SN12C renal
  TGI: > 100 µM
SK-OV-3 ovarian
  TGI: > 100 µM
HOP-62 NSCLC
  TGI: > 100 µM
MALME-3M melanoma
  TGI: > 100 µM
NCI-H522 lung
  TGI: > 100 µM
SF-295 CNS
  TGI: > 100 µM
RPMI-8226 leukemia
  TGI: > 100 µM
SF-268 CNS
  TGI: > 100 µM

## Oc1ccccc1CNCc1nc2ccccc2[nH]1
UACC-62 melanoma
  TGI: > 100 µM
SN12C renal
  TGI: > 100 µM
HOP-62 NSCLC
  TGI: > 100 µM
NCI-H522 lung
  TGI: > 100 µM
SF-295 CNS
  TGI: > 100 µM
MDA-N
  TGI: > 100 µM
RPMI-8226 leukemia
  TGI: 73.1 µM
SF-268 CNS
  TGI: > 100 µM
786-0 renal
  TGI: > 100 µM

## Cc1ccc(-c2csc(=Nc3ccccc3)n2NC(=O)c2ccncc2)cc1
UACC-62 melanoma
  TGI: 70.6 µM
SN12C renal
  TGI: > 100 µM
SK-OV-3 ovarian
  TGI: > 100 µM
HOP-62 NSCLC
  TGI: > 100 µM
MALME-3M melanoma
  TGI: > 100 µM
SF-295 CNS
  TGI: 74.9 µM
MDA-N
  TGI: > 100 µM
RPMI-8226 leukemia
  TGI: 75.8 µM
SF-268 CNS
  TGI: > 100 µM
786-0 renal
  TGI: > 100 µM

## Cc1ccc(NC(=O)CC2Sc3ccccc3NC2=O)cc1C (configuration not stated)
UACC-62 melanoma
  TGI: > 100 µM
SN12C renal
  TGI: > 100 µM
SK-OV-3 ovarian
  TGI: > 100 µM
HOP-62 NSCLC
  TGI: > 100 µM
MALME-3M melanoma
  TGI: > 100 µM
NCI-H522 lung
  TGI: > 100 µM
SF-295 CNS
  TGI: > 100 µM
RPMI-8226 leukemia
  TGI: > 100 µM
SF-268 CNS
  TGI: > 100 µM

## Nc1c(S(=O)(=O)O)cc2cc(S(=O)(=O)O)ccc2c1N=Nc1ccc(-c2ccc(N=Nc3c(N)c(S(=O)(=O)O)cc4cc(S(=O)(=O)O)ccc34)c(S(=O)(=O)O)c2)cc1
UACC-62 melanoma
  TGI: > 100 µM
SN12C renal
  TGI: > 100 µM
SK-OV-3 ovarian
  TGI: > 100 µM
HOP-62 NSCLC
  TGI: > 100 µM
MALME-3M melanoma
  TGI: > 100 µM
NCI-H522 lung
  TGI: > 100 µM
SF-295 CNS
  TGI: > 100 µM
RPMI-8226 leukemia
  TGI: > 100 µM
SF-268 CNS
  TGI: > 100 µM

## Oc1ccc(-c2nc3ccc(Br)cc3s2)cc1
UACC-62 melanoma
  TGI: 27.4 µM
SN12C renal
  TGI: 49.6 µM
SK-OV-3 ovarian
  TGI: 51.4 µM
MALME-3M melanoma
  TGI: 90.9 µM
NCI-H522 lung
  TGI: 22.9 µM
SF-295 CNS
  TGI: 33 µM
MDA-N
  TGI: > 100 µM
RPMI-8226 leukemia
  TGI: 40.2 µM
SF-268 CNS
  TGI: 57.4 µM

## COc1cccc(Nc2nc(-c3cccs3)nc3cc(OC)c(OC)cc23)c1
UACC-62 melanoma
  TGI: 39.8 µM
SN12C renal
  TGI: 53.8 µM
SK-OV-3 ovarian
  TGI: > 100 µM
HOP-62 NSCLC
  TGI: 62.7 µM
MALME-3M melanoma
  TGI: > 100 µM
NCI-H522 lung
  TGI: 43.1 µM
SF-295 CNS
  TGI: 53.1 µM
RPMI-8226 leukemia
  TGI: 27.3 µM
SF-268 CNS
  TGI: > 100 µM
786-0 renal
  TGI: 46 µM

## COc1ccc(-n2c(C)nc3ccc(NC(=S)Nc4ccccc4)cc3c2=O)cc1
UACC-62 melanoma
  TGI: > 100 µM
SN12C renal
  TGI: > 100 µM
HOP-62 NSCLC
  TGI: > 100 µM
MALME-3M melanoma
  TGI: > 100 µM
NCI-H522 lung
  TGI: > 100 µM
SF-295 CNS
  TGI: > 100 µM
RPMI-8226 leukemia
  TGI: > 100 µM
SF-268 CNS
  TGI: > 100 µM
786-0 renal
  TGI: > 100 µM

## Nc1nc(SCCC/C=C/I)nc2c1ncn2C1OC(COP(=O)(O)O)C(O)C1O (configuration not stated)
UACC-62 melanoma
  TGI: > 100 µM
SN12C renal
  TGI: > 100 µM
SK-OV-3 ovarian
  TGI: > 100 µM
HOP-62 NSCLC
  TGI: > 100 µM
MALME-3M melanoma
  TGI: > 100 µM
NCI-H522 lung
  TGI: > 100 µM
SF-295 CNS
  TGI: > 100 µM
SF-268 CNS
  TGI: > 100 µM

## N[C@@H](CCC(=O)NCP(=O)(O)O)C(=O)O
UACC-62 melanoma
  TGI: > 100 µM
SN12C renal
  TGI: > 100 µM
HOP-62 NSCLC
  TGI: > 100 µM
MALME-3M melanoma
  TGI: > 100 µM
NCI-H522 lung
  TGI: > 100 µM
SF-295 CNS
  TGI: > 100 µM
MDA-N
  TGI: > 100 µM
RPMI-8226 leukemia
  TGI: > 100 µM
786-0 renal
  TGI: > 100 µM

## O=c1[nH]c(=S)[nH]c2c1C(c1ccc([N+](=O)[O-])cc1)c1c([nH]c(=S)[nH]c1=O)O2
UACC-62 melanoma
  TGI: > 100 µM
SN12C renal
  TGI: > 100 µM
HOP-62 NSCLC
  TGI: > 100 µM
NCI-H522 lung
  TGI: > 100 µM
SF-295 CNS
  TGI: > 100 µM
MDA-N
  TGI: > 100 µM
RPMI-8226 leukemia
  TGI: > 100 µM
786-0 renal
  TGI: > 100 µM

## CC1(C)O[C@H]2OC(CO[Si](C)(C)C(C)(C)C)C(N=[N+]=[N-])[C@H]2O1 (some centres not stated)
UACC-62 melanoma
  TGI: 52.6 µM
SN12C renal
  TGI: 36.2 µM
SK-OV-3 ovarian
  TGI: 28.3 µM
HOP-62 NSCLC
  TGI: 34.1 µM
MALME-3M melanoma
  TGI: 31.7 µM
SF-295 CNS
  TGI: 24.9 µM
MDA-N
  TGI: 53.8 µM
RPMI-8226 leukemia
  TGI: 28.8 µM
SF-268 CNS
  TGI: 41.3 µM
786-0 renal
  TGI: 32.7 µM

## C(=C(c1ccc(OC2CCCCO2)cc1)c1ccc(OC2CCCCO2)cc1)c1ccccc1 (configuration not stated)
UACC-62 melanoma
  TGI: 1.98 µM
SN12C renal
  TGI: 2.47 µM
SK-OV-3 ovarian
  TGI: 2.64 µM
HOP-62 NSCLC
  TGI: 2.3 µM
MALME-3M melanoma
  TGI: 2.24 µM
NCI-H522 lung
  TGI: 2.4 µM
SF-295 CNS
  TGI: 2.51 µM
MDA-N
  TGI: 1.75 µM
SF-268 CNS
  TGI: 5.31 µM
786-0 renal
  TGI: 1.62 µM

## CCN(CC)CCNC(=O)c1cc2cc(NC(=O)c3cc4cc([N+](=O)[O-])ccc4[nH]3)ccc2[nH]1
UACC-62 melanoma
  TGI: 87.5 µM
SN12C renal
  TGI: > 100 µM
SK-OV-3 ovarian
  TGI: 71.4 µM
HOP-62 NSCLC
  TGI: > 100 µM
SF-295 CNS
  TGI: 65.6 µM
MDA-N
  TGI: > 100 µM
RPMI-8226 leukemia
  TGI: 9.63 µM
SF-268 CNS
  TGI: > 100 µM

## COC(=O)C1CC(C=[N+](C)C)=C(SC)N1C(=O)OCc1ccccc1 (configuration not stated)
UACC-62 melanoma
  TGI: > 100 µM
SK-OV-3 ovarian
  TGI: > 100 µM
HOP-62 NSCLC
  TGI: > 100 µM
MALME-3M melanoma
  TGI: > 100 µM
NCI-H522 lung
  TGI: > 100 µM
SF-295 CNS
  TGI: > 100 µM
MDA-N
  TGI: > 100 µM
RPMI-8226 leukemia
  TGI: > 100 µM
SF-268 CNS
  TGI: > 100 µM
786-0 renal
  TGI: > 100 µM

## COC(=O)[C@@H](O)[C@](O)(CCC(C)C)C(=O)O[C@@H]1C(OC)=C[C@]23CCCN2CCc2cc4c(cc2[C@H]13)OCO4
UACC-62 melanoma
  TGI: 29.4 µM
SN12C renal
  TGI: 10.3 µM
SK-OV-3 ovarian
  TGI: 8.12 µM
HOP-62 NSCLC
  TGI: 4.75 µM
MALME-3M melanoma
  TGI: 1.94 µM
NCI-H522 lung
  TGI: 2.99 µM
SF-295 CNS
  TGI: 5.68 µM
RPMI-8226 leukemia
  TGI: 6.06 µM
SF-268 CNS
  TGI: 3.37 µM

## CCCCCCCC/C=C\CCCCCCCCCCCC(=O)O
UACC-62 melanoma
  TGI: 102 µM
SN12C renal
  TGI: > 98 µM
SK-OV-3 ovarian
  TGI: > 125 µM
HOP-62 NSCLC
  TGI: 63.6 µM
MALME-3M melanoma
  TGI: > 125 µM
NCI-H522 lung
  TGI: 40 µM
SF-295 CNS
  TGI: 116 µM
RPMI-8226 leukemia
  TGI: 110 µM
SF-268 CNS
  TGI: > 125 µM

## CCOP(=O)(OCC)C(F)(F)c1ccc(CC(NC(=O)OC(C)(C)C)C(=O)O)cc1 (configuration not stated)
UACC-62 melanoma
  TGI: > 10 µM
SN12C renal
  TGI: > 10 µM
SK-OV-3 ovarian
  TGI: > 10 µM
HOP-62 NSCLC
  TGI: > 10 µM
MALME-3M melanoma
  TGI: > 10 µM
SF-295 CNS
  TGI: > 10 µM
MDA-N
  TGI: > 10 µM
SF-268 CNS
  TGI: > 10 µM
786-0 renal
  TGI: > 10 µM

## c1ccc2c3[nH]c(c2c1)=Nc1ccc(cc1)-c1nc2cc(ccc2o1)N=c1[nH]c(c2ccccc12)=Nc1ccc2nc(oc2c1)-c1ccc(cc1)N=3
UACC-62 melanoma
  TGI: > 100 µM
SN12C renal
  TGI: > 100 µM
HOP-62 NSCLC
  TGI: > 100 µM
NCI-H522 lung
  TGI: > 100 µM
SF-295 CNS
  TGI: > 100 µM
MDA-N
  TGI: > 100 µM
SF-268 CNS
  TGI: > 100 µM
786-0 renal
  TGI: > 100 µM

## C=CC1(CC/C(=C\[N+](=O)[O-])c2ccc(OC)c(OC)c2)OCC(C)(C)CO1
UACC-62 melanoma
  TGI: 29.4 µM
SN12C renal
  TGI: 47.6 µM
SK-OV-3 ovarian
  TGI: 60.4 µM
HOP-62 NSCLC
  TGI: 60.7 µM
MALME-3M melanoma
  TGI: 45.5 µM
NCI-H522 lung
  TGI: 37.8 µM
SF-295 CNS
  TGI: 53.1 µM
MDA-N
  TGI: 55.5 µM
SF-268 CNS
  TGI: 39.1 µM
786-0 renal
  TGI: 37.9 µM

## O=C(/C=C/c1ccc2c(c1)OCO2)c1ccc(O)cc1
UACC-62 melanoma
  TGI: 33 µM
SN12C renal
  TGI: 29.1 µM
SK-OV-3 ovarian
  TGI: 35.1 µM
HOP-62 NSCLC
  TGI: 66.1 µM
MALME-3M melanoma
  TGI: 28.6 µM
NCI-H522 lung
  TGI: 6.72 µM
SF-295 CNS
  TGI: 32.6 µM
MDA-N
  TGI: 22.9 µM
SF-268 CNS
  TGI: > 100 µM
786-0 renal
  TGI: 3.01 µM

## Cc1cc(C)nc(NS(=O)(=O)c2ccc(NC(=O)c3ccc4nc5ccccc5c(Nc5ccc(S(N)(=O)=O)cc5)c4c3)cc2)n1
UACC-62 melanoma
  TGI: > 100 µM
SN12C renal
  TGI: > 100 µM
SK-OV-3 ovarian
  TGI: > 100 µM
HOP-62 NSCLC
  TGI: > 100 µM
MALME-3M melanoma
  TGI: > 100 µM
NCI-H522 lung
  TGI: > 100 µM
SF-295 CNS
  TGI: > 100 µM
RPMI-8226 leukemia
  TGI: > 100 µM
SF-268 CNS
  TGI: > 100 µM
786-0 renal
  TGI: > 100 µM
